Data on 3 molecules can be found in PMC3375280 (PLoS ONE, 2012).

In general, Kd refers to the free concentration of one partner at which half of the binding sites on the other are occupied at equilibrium, for simple one-to-one binding.

Numbering of substitutions follows the chain as printed.

Assay [1] has as its target T1, AT1 V116A mutant receptor (Rattus norvegicus, UniProt P25095, V116A).
T1 construct: expressed in transfected cells; host or cells: COS1
T1 sequence (P25095 1-359 V116A): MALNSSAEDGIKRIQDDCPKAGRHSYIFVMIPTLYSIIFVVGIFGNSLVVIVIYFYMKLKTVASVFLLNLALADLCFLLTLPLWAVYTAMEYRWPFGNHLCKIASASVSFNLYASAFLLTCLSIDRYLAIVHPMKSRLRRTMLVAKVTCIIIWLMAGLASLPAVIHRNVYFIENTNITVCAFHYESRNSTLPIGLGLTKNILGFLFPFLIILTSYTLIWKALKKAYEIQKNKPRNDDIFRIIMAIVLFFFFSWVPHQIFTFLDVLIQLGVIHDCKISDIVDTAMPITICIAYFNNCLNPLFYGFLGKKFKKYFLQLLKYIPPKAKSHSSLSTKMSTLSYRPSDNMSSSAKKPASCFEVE
The experiment in a line: competition binding, V116A mutant. The following applies: for Kd ratio relative to WT (in parentheses): V116A / WT; for Kd: V116A, COS1 membranes, read-out: Binding affinity (Kd). The method, then: (§1) The Kd and Bmax values of receptor binding were determined by ^125I-[Sar^1, Ile^8] […] Membranes expressing the WT or mutant AT1 receptors were incubated with 100 pM ^125I-[Sar^1, Ile^8] […] The binding reaction was terminated by filtering the incubation mixture through Whatman GF/C glass filters, and the residues were extensively washed further with binding buffer. The bound ligand fraction was determined from the counts per minute (cpm) remaining on the membrane. Binding kinetics values were determined as previously described.

Assay [2] has as its target T2, AT1 Y113A mutant receptor (Rattus norvegicus, UniProt P25095, Y113A).
T2 construct: expressed in transfected cells; host or cells: COS1
T2 sequence (P25095 1-359 Y113A): T1 sequence (P25095 1-359 V116A) with Y113A, A116V
The experiment in a line: competition binding, Y113A mutant. Particulars: for Kd ratio relative to WT (in parentheses): Y113A / WT; for Kd: Y113A, COS1 membranes, read-out: Binding affinity (Kd). As for the experimental part: as §1

The target of assay [3] is T3, AT1 C76A/L112C/C289A mutant receptor (Rattus norvegicus, UniProt P25095, C289A/C76A/L112C).
T3 construct: expressed in transfected cells; host or cells: COS1
T3 sequence (P25095 1-359 C76A/L112C/C289A): T1 sequence (P25095 1-359 V116A) with C76A, L112C, A116V, C289A
The experiment in a line: substituted cysteine accessibility mapping (SCAM), C76A/L112C/C289A. Set-up: key to Cysteine accessibility at Leu112 compared to ligand (-): Less and More indicate that the AT1 receptor is less or more accessible to the ligand pocket, respectively; Less and More indicate that the AT1 receptor is less or more accessible to the ligand pocket, respectively; No change. The following applies: for % inhibition of 125I-[Sar1,Ile8]Ang II binding by MTSEA+ after ligand pre-incubation: C76A/L112C/C289A mutant, 1 µM ligand, comparison in words; for Cysteine accessibility at Leu112 compared to ligand (-): SCAM, 1 µM ARB, […] MTSEA+, COS1 membranes. It counts as binding. An excerpt:
As we reported previously, the percentage (%) inhibition of ^125I-[Sar^1, Ile^8] AngII binding by methanethiosulphonate ethyl-ammonium (MTSEA^+) reagent was approximately 30% on AT1 receptor, since Cys^76 in TM2 was accessible to water within the ligand pocket. In addition, mechanical stretching increased the accessibility of Cys^289 by inducing a change in the conformation of TM7 [22]. To differentiate between single and multiple movements of one or more native cysteines, we created TM3 residues that were substituted with cysteine one at a time from […] to Phe^117 using the C76A/C289A mutant genetic background and evaluated each triple mutant for MTSEA sensitivity.
Figure 3 Changes in cysteine accessibility in COS1 cells expressing C76A/C289A mutant receptors in which the transmenbrane 3 residues from Ala^106 to Phe^117, except for position 113, were successively replaced by cysteine. 1 µM of ARBs, n=4–9, *p<0.05 vs. no treatment. #p<0.05 vs. C76A/C289A.
The SCAM method has been used to probe relative changes in the conformation of constitutively active AT1 receptor [20]–[22] and other GPCRs, [30] by validating the presence of Cys residues within the ligand pocket. We used a highly reactive, sulfhydryl-specific reaction with methanethiosulfonyl ethyl-ammonium (MTSEA^+), which reacts a billion times faster with water-exposed and ionized Cys than with lipid-exposed and un-ionized Cys. In this reaction, a positively charged sulfonylmethylammonium group is added to a water-exposed Cys. Aliquots of cell membranes are incubated with or without ARBs for 20 min in phosphate buffer at room temperature. The membranes are then diluted with same buffer and centrifuged. After washout the cell membranes, the membranes are incubated with 2.5 mM MTSEA^+ at room temperature for 2 min in HEPES buffer (pH7.4). The Membranes are then diluted with same buffer to stop the reaction and centrifuged. One hundred µl aliquots were used to assay for ^125I-[Sar^1,Ile^8]Ang II binding. The fractional inhibition is calculates 1 − [(specific binding after MTX reagent) / (specific binding without reagent)].

Assay [4] concerns the target T4, AT1 C76A/F117C/C289A mutant receptor (Rattus norvegicus, UniProt P25095, C289A/C76A/F117C).
T4 construct: expressed in transfected cells; host or cells: COS1 cells (membranes)
T4 sequence (P25095 1-359 C76A/F117C/C289A): T1 sequence (P25095 1-359 V116A) with C76A, A116V, F117C, C289A
The experiment in a line: competition binding, C76A/F117C/C289A mutant. The following applies: for Kd ratio relative to WT (in parentheses): C76A/F117C/C289A / WT; for Kd: C76A/F117C/C289A, COS1 membranes, read-out: Binding affinity (Kd). As for the experimental part:
as §1

On to `CCCc1nc(C(C)(C)O)c(C(=O)O)n1Cc1ccc(-c2ccccc2-c2nnn[nH]2)cc1` [Olmesartan, olmesartan, reference compound], for which the figures for the “Kd ratio relative to WT (in parentheses)” value in assay [1], in assay [2] and in assay [4] were 3.8 fold, 5.2 fold and 1.0 fold, respectively. For the same molecule, the Kd in assay [1] stood at 8.8 ± 1.2 nM; in assay [2], 12 ± 3 nM; in assay [4] it was 2.4 ± 1.3 nM. In addition, the “% inhibition of 125I-[Sar1,Ile8]Ang II binding by MTSEA+ after ligand pre-incubation” value (“% inhibition” for short) in assay [3] is given as “significantly lower than that with ligand (-)”. Besides, the “Cysteine accessibility at Leu112 compared to ligand (-)” value in assay [3] was “Less”; in assay [3] (listed as olmesartan) it was “less accessibility”.

Consider `CCCc1nc(C(C)(C)O)c(C(N)=O)n1Cc1ccc(-c2ccccc2-c2nnn[nH]2)cc1` [R239470], for which the “Kd ratio relative to WT (in parentheses)” value in assay [1] turned out to be 3.2 fold; in assay [2] it was 183 fold; in assay [4], 2.8 fold. The Kd in assay [1] worked out at 2.6 ± 0.7 nM; in assay [2], 146 ± 15 nM; in assay [4], 2.2 ± 0.2 nM. For the same molecule, the “% inhibition” value in assay [3] is “significantly lower than that with ligand (-)”.

Take `CCCc1nc(C(C)(C)O)c(C(N)=O)n1Cc1ccc(-c2cc(Cc3ccc(O)cc3)ccc2-c2nnn[nH]2)cc1` [R794847]: the “Kd ratio relative to WT (in parentheses)” value in assay [1] is 45 fold; in assay [2] it was 38 fold; in assay [4] it was 0.6 fold. For the same molecule, the values for the Kd in assay [1], in assay [2] and in assay [4] were 2150 ± 802 nM, 1800 ± 205 nM and 29 ± 9 nM, respectively. In assay [3], the “% inhibition” value is “significantly lower than those with olmesartan and R239470”.
